Assay results from ChEMBL document CHEMBL1201862, “PubChem BioAssay data set” (2004).
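96-well plates; 48 h exposure; 5 concentrations. Endpoints by linear interpolation between flanking doses. Not reached: highest tested concentration assigned. At the GI50, growth is halved.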 Calls of active or inactive are those of the source. Rule as the data show it: active = GI50 up to about 1.1 µM and inactive = higher.

Columns and labels:
Experiment in all cases: DTP human tumour cell line panel, 48 h
[1] = tested on: SR
[2] = tested on: HCT-116
[3] = tested on: SF-539
[4] = tested on: COLO 205
[5] = tested on: CCRF-CEM
[6] = tested on: OVCAR-5
[7] = tested on: SF-295
[8] = tested on: SK-MEL-28
[9] = tested on: NCI-H226
[10] = tested on: HOP-92
[11] = tested on: HT-29
[12] = tested on: 786-0
[13] = tested on: RXF 393
[14] = tested on: NCI-H522
[15] = tested on: TK-10
[16] = tested on: DU-145
[17] = tested on: OVCAR-3
[18] = tested on: MDA-N
[19] = tested on: Hs-578T

Compound	GI50 [1]	GI50 [2]	GI50 [3]	GI50 [4]	GI50 [5]	GI50 [6]	GI50 [7]	GI50 [8]	GI50 [9]	GI50 [10]	GI50 [11]	GI50 [12]	GI50 [13]	GI50 [14]	GI50 [15]	GI50 [16]	GI50 [17]	GI50 [18]	GI50 [19]
COc1ccc(C(C#N)NNC(=O)Cc2ccccc2)cc1OC (centres undefined)	> 100 µM (inactive)	> 100 µM (inactive)	> 100 µM (inactive)	> 100 µM (inactive)	> 100 µM (inactive)	> 100 µM (inactive)	> 100 µM (inactive)	> 100 µM (inactive)	> 100 µM (inactive)	> 100 µM (inactive)	> 100 µM (inactive)	> 100 µM (inactive)	> 100 µM (inactive)	> 100 µM (inactive)	> 100 µM (inactive)	–	–	–	–
O=[N+]([O-])c1ccc2nc3c(nc2c1)-c1c2ccccc2cc2cccc-3c12	–	2.87 µM (inactive)	15 µM (inactive)	> 100 µM (inactive)	6.12 µM (inactive)	51.8 µM (inactive)	19.6 µM (inactive)	51.4 µM (inactive)	12.7 µM (inactive)	14.9 µM (inactive)	5.31 µM (inactive)	7.62 µM (inactive)	8.41 µM (inactive)	3.3 µM (inactive)	25.1 µM (inactive)	28.2 µM (inactive)	12.3 µM (inactive)	10.5 µM (inactive)	5.37 µM (inactive)
S=c1oc(CCCCCCCCc2nn(CNc3ccc(Cl)cc3)c(=S)o2)nn1CNc1ccc(Cl)cc1	–	> 100 µM (inactive)	–	7.38 µM (inactive)	–	60.5 µM (inactive)	4.92 µM (inactive)	20.3 µM (inactive)	> 100 µM (inactive)	> 100 µM (inactive)	> 100 µM (inactive)	> 100 µM (inactive)	> 100 µM (inactive)	> 100 µM (inactive)	> 100 µM (inactive)	> 100 µM (inactive)	–	43.4 µM (inactive)	–
Oc1ccc(Cl)cc1/N=N\c1c(O)ccc2ccccc12	> 100 µM (inactive)	> 100 µM (inactive)	–	> 100 µM (inactive)	> 100 µM (inactive)	> 100 µM (inactive)	> 100 µM (inactive)	> 100 µM (inactive)	> 100 µM (inactive)	> 100 µM (inactive)	> 100 µM (inactive)	> 100 µM (inactive)	> 100 µM (inactive)	59.4 µM (inactive)	> 100 µM (inactive)	–	> 100 µM (inactive)	> 100 µM (inactive)	> 100 µM (inactive)
COc1cc(N(CCC#N)CCC#N)ccc1C(/N=N/c1cccc(C)c1)=N\NC(=O)c1ccc(C)cc1	–	> 100 µM (inactive)	–	60 µM (inactive)	97.3 µM (inactive)	> 100 µM (inactive)	> 100 µM (inactive)	> 100 µM (inactive)	> 100 µM (inactive)	65.9 µM (inactive)	> 100 µM (inactive)	> 100 µM (inactive)	73.8 µM (inactive)	80.5 µM (inactive)	57.7 µM (inactive)	> 100 µM (inactive)	> 100 µM (inactive)	> 100 µM (inactive)	> 100 µM (inactive)
c1ccc(C(/C(=N/c2ccc(Cc3ccc(/N=C(\C(c4ccccc4)c4ccccc4)N4CC4)cc3)cc2)N2CC2)c2ccccc2)cc1	1.31 µM (inactive)	4.36 µM (inactive)	16.3 µM (inactive)	3.27 µM (inactive)	3.18 µM (inactive)	11.5 µM (inactive)	9.31 µM (inactive)	9.46 µM (inactive)	14.7 µM (inactive)	–	3.1 µM (inactive)	14.8 µM (inactive)	1.09 µM (active)	3.14 µM (inactive)	14.2 µM (inactive)	12.6 µM (inactive)	3.66 µM (inactive)	–	10.6 µM (inactive)
COC(=O)c1cc(C)ccc1CC(Cc1ccccc1C)C(=O)OC (centres undefined)	–	14.7 µM (inactive)	> 100 µM (inactive)	46.2 µM (inactive)	14 µM (inactive)	–	38.2 µM (inactive)	88.1 µM (inactive)	81.7 µM (inactive)	14.4 µM (inactive)	22 µM (inactive)	89.5 µM (inactive)	26.9 µM (inactive)	25.8 µM (inactive)	> 100 µM (inactive)	> 100 µM (inactive)	24.4 µM (inactive)	28.4 µM (inactive)	27.9 µM (inactive)
Nc1c(C(=O)c2ccc(Cl)cc2)[nH]c(NCc2ccccc2)c1C(=S)Nc1ccccc1	–	1.83 µM (inactive)	4.62 µM (inactive)	11.5 µM (inactive)	2.44 µM (inactive)	3 µM (inactive)	1.83 µM (inactive)	1.77 µM (inactive)	7.91 µM (inactive)	2.84 µM (inactive)	1.94 µM (inactive)	1.72 µM (inactive)	1.79 µM (inactive)	1.82 µM (inactive)	2.09 µM (inactive)	3.44 µM (inactive)	6.65 µM (inactive)	1.73 µM (inactive)	–
Cc1nnc(N2C(=O)C(=Cc3ccc(Cl)cc3)N=C2c2ccc(Cl)cc2)nc1/C=C\c1ccc(N(C)C)cc1	–	> 100 µM (inactive)	–	> 100 µM (inactive)	> 100 µM (inactive)	> 100 µM (inactive)	> 100 µM (inactive)	> 100 µM (inactive)	> 100 µM (inactive)	> 100 µM (inactive)	> 100 µM (inactive)	> 100 µM (inactive)	> 100 µM (inactive)	> 100 µM (inactive)	> 100 µM (inactive)	> 100 µM (inactive)	> 100 µM (inactive)	73.1 µM (inactive)	> 100 µM (inactive)
CSCCCN(CCCSC)CCCSC	10.6 µM (inactive)	> 100 µM (inactive)	> 100 µM (inactive)	> 100 µM (inactive)	35.5 µM (inactive)	> 100 µM (inactive)	> 100 µM (inactive)	> 100 µM (inactive)	–	–	> 100 µM (inactive)	> 100 µM (inactive)	–	66.7 µM (inactive)	–	> 100 µM (inactive)	> 100 µM (inactive)	> 100 µM (inactive)	–
OC(/C(=N/c1ccccc1)c1ccccc1)c1ccccc1 (centres undefined)	3.53 µM (inactive)	5.37 µM (inactive)	11.3 µM (inactive)	4.05 µM (inactive)	3.32 µM (inactive)	23.1 µM (inactive)	9.71 µM (inactive)	2.66 µM (inactive)	10.8 µM (inactive)	4.05 µM (inactive)	5.22 µM (inactive)	10.8 µM (inactive)	12.3 µM (inactive)	4.35 µM (inactive)	2.72 µM (inactive)	5.35 µM (inactive)	2.66 µM (inactive)	–	2.29 µM (inactive)
N#CC1CCN2N=C(c3ccccc3)SC12c1ccccc1 (centres undefined)	37.1 µM (inactive)	35.2 µM (inactive)	78.2 µM (inactive)	40.7 µM (inactive)	–	> 100 µM (inactive)	60.5 µM (inactive)	> 100 µM (inactive)	58.1 µM (inactive)	58.1 µM (inactive)	32.1 µM (inactive)	89.1 µM (inactive)	31.3 µM (inactive)	46.2 µM (inactive)	> 100 µM (inactive)	–	–	54.7 µM (inactive)	88.3 µM (inactive)
COC(=O)c1sc2ncc3c(c2c1N)CC(C)CC3 (centres undefined)	> 100 µM (inactive)	> 100 µM (inactive)	> 100 µM (inactive)	> 100 µM (inactive)	> 100 µM (inactive)	> 100 µM (inactive)	> 100 µM (inactive)	> 100 µM (inactive)	> 100 µM (inactive)	> 100 µM (inactive)	67 µM (inactive)	81.3 µM (inactive)	70.6 µM (inactive)	> 100 µM (inactive)	> 100 µM (inactive)	> 100 µM (inactive)	> 100 µM (inactive)	> 100 µM (inactive)	–
CCOC(=O)C(C(=O)COC(C)(C)C)[C@@H]1C=C[C@H](OC(C)=O)C1 (some centres undefined)	–	> 100 µM (inactive)	> 100 µM (inactive)	> 100 µM (inactive)	73.8 µM (inactive)	> 100 µM (inactive)	> 100 µM (inactive)	> 100 µM (inactive)	> 100 µM (inactive)	–	> 100 µM (inactive)	> 100 µM (inactive)	–	–	–	–	> 100 µM (inactive)	> 100 µM (inactive)	> 100 µM (inactive)
COC(=O)C1(C(=O)OC)N=C(C)OC1/C=C/c1ccccc1 (centres undefined)	> 100 µM (inactive)	> 100 µM (inactive)	–	> 100 µM (inactive)	75.3 µM (inactive)	> 100 µM (inactive)	> 100 µM (inactive)	> 100 µM (inactive)	> 100 µM (inactive)	> 100 µM (inactive)	–	> 100 µM (inactive)	> 100 µM (inactive)	–	> 100 µM (inactive)	> 100 µM (inactive)	> 100 µM (inactive)	> 100 µM (inactive)	–
CC(=O)C(C)CCOC1(C)OCCC1C (centres undefined)	> 100 µM (inactive)	> 100 µM (inactive)	> 100 µM (inactive)	65 µM (inactive)	> 100 µM (inactive)	> 100 µM (inactive)	> 100 µM (inactive)	> 100 µM (inactive)	> 100 µM (inactive)	> 100 µM (inactive)	> 100 µM (inactive)	> 100 µM (inactive)	> 100 µM (inactive)	> 100 µM (inactive)	> 100 µM (inactive)	> 100 µM (inactive)	> 100 µM (inactive)	–	> 100 µM (inactive)
O=C1NCC(NC(=O)C(F)(F)F)c2c(Br)sc(Br)c21 (centres undefined)	> 100 µM (inactive)	> 100 µM (inactive)	> 100 µM (inactive)	> 100 µM (inactive)	> 100 µM (inactive)	> 100 µM (inactive)	> 100 µM (inactive)	> 100 µM (inactive)	> 100 µM (inactive)	> 100 µM (inactive)	> 100 µM (inactive)	> 100 µM (inactive)	> 100 µM (inactive)	> 100 µM (inactive)	> 100 µM (inactive)	> 100 µM (inactive)	> 100 µM (inactive)	> 100 µM (inactive)	–
